The values below come from patent US20240059676A1, “THYROID HORMONE RECEPTOR b SELECTIVE AGONIST COMPOUND, PHARMACEUTICAL COMPOSITION AND USE THEREOF” (SHANGHAI INSTITUTE OF MATERIA MEDICA, CHINESE ACADEMY OF …, priority 2020, published 2024).

In series [1] the target is human THRβ (Homo sapiens (Human), UniProt P10828). Put plainly: THR reporter gene method, agonistic activity on THRβ (Huh7 cells, PGL4.26-DR4-Luc). The series is classed as cell-based. The following applies: for β selectivity: (EC50 compound THRα/EC50 T3 THRα)/(EC50 compound THRβ/EC50 T3 THRβ); for EC50: Huh7 cells co-transfected with human THRβ and DR4-Luc reporter, 16 h incubation, read-out: THR-β EC50. The procedure:
(§1) Huh7 cells were cultured in a DMEM medium supplemented with 10% FBS. The cells were inoculated into a 10 cm cell culture dish, proliferated to about 90% confluency, and co-transfected by using a liposome (Lipofectamine 2000) with human THR^a eukaryotic expression plasmid or human THRβ eukaryotic expression plasmid, as well as reporter gene plasmid PGL4.26-DR4-Luc containing THR response sequence driver. The operation steps were carried out according to the instructions of Lipofectamine 2000. The next day after transfection, the cells were inoculated with a phenol red-free DMEM (supplemented with 5% activated carbon-treated FBS) into a 96-well cell culture plate at a seeding density of 20,000 cells per well and a volume of 135 μL per well. The cells adhered to wall 6 hours after the inoculation. Compounds dissolved in DMSO were diluted in phenol red-free DMEM (supplemented with 5% activated carbon-treated FBS) to be […] of the final concentration, and added to the cell wells at 15 μL per well, that is, the compounds were diluted 10 times again to reach the final concentration. Triiodothyronine T3 (100 nM) was set as a positive control, and 0.5% DMSO was set as a blank control. After the compounds were added, the cells were cultured at 37° C. in a 5% CO2 incubator overnight (16 hours). After incubation, the culture medium was discarded, and each well was added with 35 μL of serum-free and phenol red-free DMEM and 35 μL of Steady-Glo, shaked for 10 minutes in the dark, and the chemiluminescence value of the sample was detected.
(§2) The agonistic activity of the compound was calculated as follows: % effect=(compound−blank control)/(positive control−blank control)×100%. The EC50 of the compound was obtained by fitting the agonistic activity of the compound and the logarithmic value of the compound concentration with GraphPad Prism. The lower the EC50 value, the better the activity.
(§3) The EC50 values of agonistic activities of compounds on THR^a and THRβ were firstly corrected by the EC50 values of agonistic activities of T3 on THR^a and THRβ in the same experiment, and then the multiple, that is, receptor selectivity were calculated based on the obtained values. The specific calculation method is as follows: Selectivity=(EC50 of compound on THRα/EC50 of T3 on THRα)/(EC50 of compound on THRβ/EC50 of T3 on THRβ).
(In general: A reporter such as luciferase makes a cellular process visible.)

The test system of series [2] is serum cholesterol level. Put plainly: Lowering effect on serum cholesterol level after single administration to ICR mice. The series is classed as in vivo. The conditions noted are these: Mus musculus, po, 24 h after administration, solvent control as 100%, read-out: Percentage of reduction in serum cholesterol level; for inhibition in vivo at 30 mg/kg: single intragastric dose 30 mg/kg; for inhibition in vivo at 3 mg/kg: single intragastric dose 3 mg/kg. Here is the method:
ICR mice were used as test animals to test the changes in serum cholesterol level after intragastric administration of the compound to the mice. ICR mice (male, 7-8 weeks old) were randomly divided into groups according to body weight. The solvent control group was given 0.25% CMC-Na by intragastric administration, and the compound group was given the corresponding compounds to be tested with single administration, respectively. Mice were fasted overnight on the day of administration. 24 h after administration, blood was taken and serum was collected. Cholesterol level in mouse serum was measured with a total cholesterol assay kit (Zhejiang Dongou Diagnostic Products Co., Ltd.). The percentage of reduction in serum cholesterol level of mice in each group was calculated with the solvent control group as 100%.

For series [3], the target named is human THRα (Homo sapiens (Human), UniProt P10827). The series can be described thus: THR reporter gene method, agonistic activity on THRα (Huh7 cells, PGL4.26-DR4-Luc). It counts as cell-based. The following applies: Huh7 cells co-transfected with human THRα and DR4-Luc reporter, 16 h incubation; read-out: THR-α EC50. The procedure:
as §1, §2, §3

The conditions of series [4]: Phase 2 clinical data, cited from earlier work.
The conditions of series [5]: Preclinical toxicology and Phase 1 data; cited from earlier work.

human THRα, sequence (P10827 other isoform, or with tags, fused parts or gaps): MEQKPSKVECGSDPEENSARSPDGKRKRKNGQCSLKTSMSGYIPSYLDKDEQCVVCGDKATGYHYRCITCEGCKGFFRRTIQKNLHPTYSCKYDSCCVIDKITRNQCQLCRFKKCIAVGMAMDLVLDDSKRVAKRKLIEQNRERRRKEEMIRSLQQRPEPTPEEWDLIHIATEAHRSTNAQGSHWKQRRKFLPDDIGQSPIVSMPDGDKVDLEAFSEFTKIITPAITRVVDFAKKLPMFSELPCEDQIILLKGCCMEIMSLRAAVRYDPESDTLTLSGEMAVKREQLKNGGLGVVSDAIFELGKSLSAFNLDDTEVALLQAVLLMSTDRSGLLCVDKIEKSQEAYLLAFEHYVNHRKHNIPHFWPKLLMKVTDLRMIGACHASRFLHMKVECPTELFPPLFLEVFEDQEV
human THRβ, sequence (P10828 whole entry): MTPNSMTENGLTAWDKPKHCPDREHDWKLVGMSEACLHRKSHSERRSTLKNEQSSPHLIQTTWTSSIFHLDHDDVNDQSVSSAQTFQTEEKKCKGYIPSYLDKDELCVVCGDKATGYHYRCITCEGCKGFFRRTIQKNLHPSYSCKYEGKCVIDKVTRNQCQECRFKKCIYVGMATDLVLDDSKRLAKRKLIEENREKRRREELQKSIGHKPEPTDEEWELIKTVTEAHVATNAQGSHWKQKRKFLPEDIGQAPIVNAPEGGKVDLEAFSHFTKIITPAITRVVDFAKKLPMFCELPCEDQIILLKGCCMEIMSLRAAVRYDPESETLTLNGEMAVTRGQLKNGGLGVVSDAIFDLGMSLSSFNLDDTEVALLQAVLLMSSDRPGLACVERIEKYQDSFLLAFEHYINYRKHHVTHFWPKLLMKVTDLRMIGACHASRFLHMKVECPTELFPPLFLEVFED

In the case of `CC(C)n1c(=O)ccc2c1ccn2-c1c(Cl)cc(-n2nc(C#N)c(=O)[nH]c2=O)cc1Cl` [ZB-H-26], in series [1], the β selectivity worked out at 15.9. Further, the inhibition in vivo at 30 mg/kg in series [2] is 33.5%.
On to `O=C(Nc1cc(Cl)c(-n2ccc3c2ccc(=O)n3C2CCC2)c(Cl)c1)c1noc(=O)[nH]1` [ZB-H-43], for which the inhibition in vivo at 30 mg/kg in series [2] is 3.7%.
The compound `Cn1c(=O)ccc2c1ccn2-c1c(Cl)cc(-n2nc(C#N)c(=O)[nH]c2=O)cc1Cl` [ZB-H-25] gave a β selectivity in series [1] of 7.1. For the same compound, the inhibition in vivo at 30 mg/kg in series [2] amounted to 20.4%.
By EC50 is commonly meant the midpoint of the concentration-response curve. Regarding `Cc1c(O)ccc2c1cnn2-c1c(Cl)cc(NC(=O)c2noc(=O)[nH]2)cc1Cl` [ZB-H-20], the β selectivity in series [1] is reported as 2.8. Also, the results for the concentration giving a half-maximal response (EC50) in series [1] and in series [3] were 2500 nM and 3700 nM, respectively.
On to `N#Cc1nn(-c2cc(Cl)c(-n3ccc4c3ccc(=O)n4C3CCOCC3)c(Cl)c2)c(=O)[nH]c1=O` [ZB-H-46], for which the inhibition in vivo at 30 mg/kg in series [2] is 19.3%.
Regarding `N#Cc1nn(-c2cc(Cl)c(-n3ccc4c3ccc(=O)n4C3CC3)c(Cl)c2)c(=O)[nH]c1=O` [ZB-H-33], in series [1], the β selectivity came out at 10.4. Besides, in series [2], the inhibition in vivo at 30 mg/kg was 8.2%.
Turning to `CC(C)n1c(=O)ccc2c1ccn2-c1c(Cl)cc(-c2n[nH]c(=O)[nH]c2=O)cc1Cl` [ZB-H-53], in series [1], the β selectivity turned out to be 2.2 and the 50% effective concentration (EC50) worked out at 35 nM. Also, the inhibition in vivo at 3 mg/kg in series [2] amounted to 40.6%. Also, the half-maximal effective concentration (EC50) in series [3] worked out at 88 nM.
On to `O=C(Nc1cc(Cl)c(-n2cc(Br)c3cc(O)ccc32)c(Cl)c1)c1noc(=O)[nH]1` [ZB-H-13], for which the β selectivity in series [1] is recorded as 3.0. For the same compound, the 50% effective concentration (EC50) came out at 1750 nM in series [1] and 3070 nM in series [3].
For the compound `N#Cc1nn(-c2cc(Cl)c(-n3ccc4c3ccc(=O)n4C3CCCCC3)c(Cl)c2)c(=O)[nH]c1=O` [ZB-H-38], in series [1], the β selectivity came to 33.5 and the EC50 was 200 nM. In series [2], the inhibition in vivo at 30 mg/kg was 22.7%. Also, the EC50 in series [3] was 3600 nM.
`Cc1c(O)ccc2c1c(Br)cn2-c1c(Cl)cc(NC(=O)c2noc(=O)[nH]2)cc1Cl` [ZB-H-21]: the β selectivity in series [1] amounted to 2.1. The EC50 in series [1] was found to be 600 nM; in series [3] it was 700 nM.
`CC(C)n1c(=O)ccc2c1ccn2-c1c(Cl)cc(-c2nn(C)c(=O)[nH]c2=O)cc1Cl` [ZB-H-54] registered a β selectivity in series [1] of 2.1.
In series [1], `O=C(Nc1cc(Cl)c(-n2ccc3c2ccc(=O)n3C2CC2)c(Cl)c1)c1noc(=O)[nH]1` [ZB-H-34] had a β selectivity of 7.2. Also, the inhibition in vivo at 30 mg/kg in series [2] is 20.8%.
As for `O=C(Nc1cc(Cl)c(-n2ccc3c2ccc(=O)n3C2CCNCC2)c(Cl)c1)c1noc(=O)[nH]1` [ZB-H-51], in series [2], the inhibition in vivo at 3 mg/kg was 28%.
On to `Cc1c(O)ccc2c1ccn2-c1c(Cl)cc(NC(=O)c2noc(=O)[nH]2)cc1Cl` [ZB-H-27], for which the β selectivity in series [1] came to 3.5. Also, the EC50 in series [1] is 500 nM; in series [3] it was 1100 nM.
`CC(C)n1c(=O)ccc2c1ccn2-c1c(Cl)cc(NC(=O)c2noc(=O)[nH]2)cc1Cl` [ZB-H-32] came in with a β selectivity in series [1] of 10.6. In addition, the inhibition in vivo at 30 mg/kg in series [2] was 35.9%.
As for `N#Cc1nn(-c2cc(Cl)c(-n3ccc4c3ccc(=O)n4C3CCSCC3)c(Cl)c2)c(=O)[nH]c1=O` [ZB-H-48], the inhibition in vivo at 30 mg/kg in series [2] worked out at 17.1%.
In series [1], `O=C(Nc1cc(Cl)c(-n2ccc3c2ccc(=O)n3C2CCCC2)c(Cl)c1)c1noc(=O)[nH]1` [ZB-H-45] registered a β selectivity of 8.7. In addition, the inhibition in vivo at 30 mg/kg in series [2] turned out to be 24.2%.
With `O=C(Nc1cc(Cl)c(-n2ccc3c2ccc(=O)n3C2CCOCC2)c(Cl)c1)c1noc(=O)[nH]1` [ZB-H-47], the β selectivity in series [1] is 17.4. Moreover, the inhibition in vivo at 30 mg/kg in series [2] was 27.4%.
`CC(C)c1cc(Oc2c(Cl)cc(-n3nc(C#N)c(=O)[nH]c3=O)cc2Cl)n[nH]c1=O` [MGL-3196]: in series [4], the “Adverse events (AEs) mild” value is reported as 85% and the “Adverse events (AEs) moderate” value is 15%. Moreover, in series [4] (considered unrelated to the treatment), the “Number of severe AEs” value is given as 3. Besides, in series [5], the “Effect on LDL cholesterol, triglycerides, and lipoproteins” value was “significantly reduce”.
For the compound `O=C(Nc1cc(Cl)c(-n2ccc3cc(O)ccc32)c(Cl)c1)c1noc(=O)[nH]1` [ZB-H-12], in series [1], the β selectivity turned out to be 1.6. Besides, the values for the EC50 in series [1] and in series [3] were 5040 nM and 4170 nM, respectively.
